Publication PMC6597546, “Identification of a potent benzoxaborole drug candidate for treating cryptosporidiosis” (Nature Communications, 2019)

Legend:
[1] = system: Escherichia coli and Salmonella typhimurium; assay: AMES bacterial reverse mutation assay; settings: five strains with and without S9, up to 5000 µg per plate
Protocol: In vitro safety profiling studies were conducted by Ricerca Biosciences (Taipei, Taiwan) and WuXi AppTec (Suzhou, China). Ricerca performed a Lead Profiling and Adverse Reaction Enzyme panel of 109 off-target enzymes and receptors. This included the hERG K+ ion channel, which is associated with cardiac tachyarrhythmias, and used a radioligand binding competition format with 10 µM test compound for 1 h at 25 °C. For the enzyme and receptor panel, competitive inhibition at 10 µM of test compound was the most common assay format. The AMES bacterial reverse mutation assay detects point mutations in Escherichia coli and Salmonella typhimurium as an indicator of mutagenic activity. Bacterial strains were obtained from Molecular Toxicology (Boone, NC).

human lymphocytes = assay: In vitro micronucleus genotoxicity assay; format: cell-based; settings: with and without S9, 3 and 28 h, 0.25 to 260 µg per mL
MDR1 (P-gp) = assay: in vitro; settings: dog

CC1(C)OB(O)c2cc(NC(=O)c3ccc(-n4cccn4)cc3Cl)ccc21 [AN7973]
Ames test for mutagenic potential [1]: negative
In vitro micronucleus (human lymphocytes): negative
Papp (MDR1 (P-gp); MDCK-MDR1, MDCK-MDR1 Papp): 56.5 ×10⁻⁶ cm/s
Papp (MDR1 (P-gp); MDCK-MDR1, MDCK-MDR1 Papp + Pgp inhibitor): 60.6 ×10⁻⁶ cm/s
